# Reference: the OPERA property sets (Mansouri et al. 2018)
# Where a SMILES comes first, the peptide text is derived from it.
# Details: not given
row,Compound,solubility [mM]
1,CCOCCOC(=O)CCCCCCCCC(=O)OCCOCC,0.635
2,COCCCCC=O,2870
3,CC1(O)CCC(C)(O)CC1 (stereo not given),243
4,CNCl,1910
5,O=C(O)C(S)CS (stereo not given),579
6,O=S(=O)(O)c1cnc[nH]1,1350
7,O=C(O)c1cc(=O)nc(-c2ccccc2)[nH]1,6.15
8,COCCOC(=O)CCCCC(=O)OCCOC,54.1
9,CC(C)CCOCC(O)CO (stereo not given),61.6
10,Oc1ccc(Sc2ccccc2)cc1,1.68
11,COc1ccc(NCC(O)CO)cc1 (stereo not given),507
12,O=C(O)CC1(CC(=O)O)OCOC1=O,245
13,CCN(CC)C(=O)N(CC)CC,232
14,O=C1CN(CO)C(=O)CN1CO,383
15,O=C1CNC(=O)C(Cc2ccc(O)cc2)N1 (stereo not given),90.8
16,N[C@@H](Cc1cc([N+](=O)[O-])c(O)c([N+](=O)[O-])c1)C(=O)O,30.7
17,CCC1(CC(C)=O)C(=O)NC(=O)NC1=O,171
18,C=CC(O)C(=O)OCC (stereo not given),2310
19,O=C(O)C1(O)CCCCC1,465
20,CCCC(Br)(CCC)C(N)=O,14.9
21,CCOC(=O)N[C@@H](C=O)[C@@H](O)[C@H](O)[C@H](O)CO,1300
22,CN(C)CCCCl,633
23,NC(=O)NCl,2120
24,CCCC(=O)OCCOCCOCCOC(=O)CCC,27.6
25,CC(C)CC1OCCO1,427
26,C=CCc1ccc(OCC(=O)O)c(OC)c1,5.27
27,CC(C)C[C@H](N)C(=O)N[C@@H](C)C(=O)NCC(=O)O (H-Leu-Ala-Gly-OH),127
28,Cn1cnc2nc(Cl)nc(Cl)c21,70.4
29,C[C@H]1NC(=O)[C@@H](C)NC1=O,703
30,CC1(C)CC(C(=O)O)C(C)(C)N1 (stereo not given),2920

# Same assay, conditions: 20 °C
row,Compound,solubility [mM]
1,O=[N+]([O-])c1ccccc1CO,32.7
2,CCOC(=O)c1[nH]c(C)cc1C,2.39
3,CC(=O)N[C@@H](CSc1ccc(Cl)c(Cl)c1)C(=O)O,1.3
4,C=CCCCN=C=S,1.26
5,CC=CCC1(C)C(=O)NC(=O)N(C)C1=O (stereo not given),28.5
6,CCCc1ncnc2c(O)cccc12,1.2
7,COc1ccccc1C(N)=O,16.5
8,COc1ccc(CO)cc1,14.5
9,OCc1ccc(Br)cc1,11.8
10,O=C(O)Cc1ccccc1C(=O)O,88.8
11,Cc1cc(C)c(OCC(=O)O)c(Br)c1,0.753
12,Cn1cc2nccnc2nc1=O,123
13,O=C(O)c1cccc2ncccc12,2.1
14,Oc1cnc2ccccc2c1,4.05
15,C=CCC1(CC)C(=O)NC(=O)NC1=O,20.5
16,CC1(C)CO1,804
17,CC=CC(=O)Nc1ccc(O)cc1,2.26
18,Cn1c(=O)c2nccnc2n(C)c1=O,34.7
19,CC(C)=NNC(N)=O,540
20,O=c1ncc2[nH]cnc2[nH]1,19.3
21,Sc1nnc(S)s1,176
22,FC(F)(F)c1nc2ncncc2[nH]1,354
23,CCOc1ccc(NC(C)=O)c2cccnc12,30.4
24,NCCCCCCNCCCCCCCCCCC(=O)O,4.99
25,Cc1ccc(O)c(CO)c1,485
26,CSc1cc(O)cc(O)c1,16
27,O=S(=O)(c1ccccc1)N1CCCCC1,2.91
28,CCCOC(=O)c1c(C(=O)O)cccc1[N+](=O)[O-],4.5

row,Compound,solubility [mM]
1,COc1c(C(=O)O)cc(C(=O)O)cc1C(=O)O,29.1
2,CC(NC(N)=O)C(=O)O (stereo not given),133
3,NN=c1nc[nH]c2nccnc12,13.7
4,NC(=O)NN=C1CCCCC1,38.7
5,Cc1ccc2[nH]c(=O)c(=O)[nH]c2c1,0.908
6,C[C@H](NC=O)C(=O)O (racemic),1020
7,NC(=S)Nc1cccc([N+](=O)[O-])c1,35.5
8,COc1ncc2nccnc2n1,77.1
9,CCOc1nsc(N)n1,223
10,N#Cc1c(O)cc(Cl)[nH]c1=O,58.6
11,COc1nsc(N)n1,57.2
12,CC(C)(O)CCl,1450
13,O=c1ccc(I)c[nH]1,18.1
14,OCc1cc(Cl)c(Cl)c(Cl)c1,0.804
15,OCc1ccc(Cl)cc1Cl,5.65
16,CC1(CCN2CCCCC2)NC(=O)NC1=O (stereo not given),151
17,O=C(O)CC(SC(CC(=O)O)C(=O)O)C(=O)O (stereo not given),323
18,NC(=O)NC(Cc1ccccc1)C(=O)O (racemic),8.02
19,CC(C)COC(=O)c1ccc(N)cc1,1.14
20,Cc1cc(O)c(C(=O)O)c(O)c1,8.92
21,C=CS(=O)(=O)Nc1ccccc1,31.7
22,CC(=O)Nc1ccc(F)cc1C,43.7
23,N#Cc1cccc(N)c1,67.7
24,O=C(O)C(Br)=C(Br)I,95.6
25,Cc1ccc(P(=O)(O)O)c(C)c1,80.6
26,CSc1ncnc2nccnc12,4.32
27,O=C(O)C=C(Br)Br,146
